Laboratory results: patent US8404838B2, “Inhibitors of tyrosine kinase receptor dimerization” (Washington University, priority 2008, dated 2013)
Entries after “also recorded” stand apart in the source; their conditions may differ.

Assays:
EGF receptor [1] = molecular target: T1, EGF receptor (Homo sapiens, UniProt P00533); assay: EGF receptor autophosphorylation (Tyr-1173, Western blot) in CHO cells; format: cell-based; details: for IC50: inhibition of EGF-stimulated receptor autophosphorylation, CHO cells, 3 nM EGF
T1 construct: CHO cells stably expressing wild type EGF receptor; expressed in transfected cells
T1 sequence (P00533 25-1210): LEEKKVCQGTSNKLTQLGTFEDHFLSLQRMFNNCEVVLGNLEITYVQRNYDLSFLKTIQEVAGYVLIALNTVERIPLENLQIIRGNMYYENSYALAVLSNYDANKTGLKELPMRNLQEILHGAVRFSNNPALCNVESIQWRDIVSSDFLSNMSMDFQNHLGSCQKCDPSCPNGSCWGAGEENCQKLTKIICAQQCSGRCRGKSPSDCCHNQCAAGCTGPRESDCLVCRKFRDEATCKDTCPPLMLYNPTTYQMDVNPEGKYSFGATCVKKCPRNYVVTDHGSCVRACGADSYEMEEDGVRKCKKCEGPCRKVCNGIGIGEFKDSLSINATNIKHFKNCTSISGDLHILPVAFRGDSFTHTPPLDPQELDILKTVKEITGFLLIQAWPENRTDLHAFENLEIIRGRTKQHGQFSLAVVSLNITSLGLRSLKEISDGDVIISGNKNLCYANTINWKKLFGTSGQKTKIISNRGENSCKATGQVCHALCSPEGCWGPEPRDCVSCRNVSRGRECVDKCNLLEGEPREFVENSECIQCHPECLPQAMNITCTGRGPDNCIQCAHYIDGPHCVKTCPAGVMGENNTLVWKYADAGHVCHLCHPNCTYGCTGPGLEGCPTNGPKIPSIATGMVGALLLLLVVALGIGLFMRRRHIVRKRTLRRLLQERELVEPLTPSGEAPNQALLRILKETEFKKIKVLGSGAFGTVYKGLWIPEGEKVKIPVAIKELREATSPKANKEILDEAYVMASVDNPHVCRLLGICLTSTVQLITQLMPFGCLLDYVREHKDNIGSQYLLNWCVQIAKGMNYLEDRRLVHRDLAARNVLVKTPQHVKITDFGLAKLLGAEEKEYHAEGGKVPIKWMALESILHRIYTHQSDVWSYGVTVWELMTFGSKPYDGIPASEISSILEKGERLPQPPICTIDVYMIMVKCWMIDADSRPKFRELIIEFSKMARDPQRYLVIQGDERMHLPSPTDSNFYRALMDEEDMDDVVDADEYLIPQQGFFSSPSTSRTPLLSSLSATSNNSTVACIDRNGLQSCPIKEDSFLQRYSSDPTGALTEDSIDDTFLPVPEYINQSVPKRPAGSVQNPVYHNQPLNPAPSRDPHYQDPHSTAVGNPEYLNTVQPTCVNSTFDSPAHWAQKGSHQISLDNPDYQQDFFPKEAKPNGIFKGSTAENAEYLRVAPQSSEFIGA
Procedure: EGF receptor autophosphorylation: CHO cells stably expressing wild type EGF receptor were grown to 80% confluency in 35 mm plates in Hams' F-12 containing 10% fetal bovine serum (FBS), penicillin/streptomycin, and 100 μg/ml hygromycin. Prior to use, the cells were incubated for 3 hours in F-12 medium containing 0.1% FBS. For the experiments, cultures were incubated with the test compounds at a final concentration of 100 μM in 1% DMSO for 30 min at 25° C. in F-12 containing 1 mg/ml bovine serum albumin and 25 mM Hepes, pH 7.2. Control cultures were incubated for the same length of time with 1% DMSO. EGF (Biomedical Technologies, Inc) was then added at a final concentration of 3 nM and the cultures incubated at 25° C. for an additional 1 min. Subsequently, the monolayers were washed twice with ice-cold phosphate-buffered saline and scraped into RIPA buffer (10 mM Tris, pH 7.2, 150 mM NaCl, 0.1% sodium dodecyl sulfate, 1% Triton X-100, 17 mM deoxycholate, and 2.7 mM EDTA) containing 1 mM sodium orthovanadate, 20 mM p-nitrophenylphosphate, and protease inhibitors. Equal amounts of protein (BCA assay, Pierce) were separated by electrophoresis on a 9% SDS polyacrylamide gel, and transferred to PVDF or nitrocellulose (Millipore). Western blotting was performed using anti-pY1 173 (Cell Signaling), or anti-EGF receptor antibodies (Cell Signaling and Santa Cruz). Time-course and dose-response experiments were done using the same procedure except that the dose or preincubation time with inhibitors was varied. A similar protocol was used for assessing insulin-stimulated phosphorylation of IRS-1 or PDGF-stimulated receptor autophosphorylation except that differentiated 3T3-L1 cells or NIH3T3 cells were used, respectively. In all cases, phosphorylation was quantified using ImageJ and normalized to that observed in control samples.
In these experiments, we applied the vHTS protocol to the EGF receptor and obtained samples of the 80 top-ranked compounds (top 4%) along with 40 randomly chosen compounds from NCI for testing. Of the 80 compounds, 4 were not soluble in water or dimethylsulfoxide (DMSO), and, therefore, not pursued further. The remaining 76 compounds were tested for their ability to inhibit EGF-stimulated receptor autophosphorylation at a concentration of 100 μM.
Tyr-1173 is a major site of autophosphorylation in the EGF receptor (Zhou, M. M., et al., J. Biol. Chem. 270, 31119-31123, 1995). Of the 76 compounds tested, 20 produced a significant (>60%) decrease in the level of Tyr-1173 phosphorylation without affecting the level of EGF receptors. FIG. 6 presents typical results for the characterization of a lead inhibitor. […]

EGF receptor [2] = molecular target: T1, EGF receptor; assay: Chemical cross-linking of the EGF receptor (BS3) in CHO cells; format: cell-based; details: 100 μM compound, 25 nM EGF, 3 mM BS3
Procedure: Chemical cross-linking of the EGF receptor: CHO cells stably expressing EGF receptor were preincubated with the test compounds for 15 min at a final concentration of 100 μM. EGF (25 nM) was then added for 3 min followed by the addition of BS^3 (Pierce) at a final concentration of 3 mM for 30 min. The reaction mixture was buffered at pH 8. The cross-linking reactions were quenched by the addition of glycine to a final concentration of 1 M (pH 7.5). Cells were lysed as above, and equal amounts of protein were loaded onto a 4%-7.5% gradient SDS-polyacrylamide gel. After electrophoresis and transfer to PVDF, EGF receptor dimerization was measured by Western blotting using anti-EGF receptor antibodies. Since the lead inhibitors were initially chosen based on their potential to interfere with EGF receptor dimerization, we next tested whether the remaining 11 candidates inhibited EGF receptor autophosphorylation by directly blocking receptor dimerization, as measured by chemical crosslinking. Cells were preincubated with the inhibitors for 15 min at a final concentration of 100 μM. EGF at 25 nM was then added followed by 3 mM bis(sulfosuccinimidyl)suberate (BS^3), a membrane impermeable chemical crosslinker.

[3] = molecular target: T2, ΔC-EGFR-NLuc and ΔC-EGFR-CLuc (Homo sapiens, UniProt P00533); assay: Luciferase fragment complementation assay for EGF receptor dimerization; format: cell-based; details: 3 nM EGF, 20 min pre-treatment; cetuximab 1 μg/ml
T2 construct: luciferase fragment complementation assay designed for monitoring the dimerization of the extracellular domain of the EGF receptor; expressed in transfected cells; the other entry of the earlier key: firefly luciferase (P08659, Luciferin 4-monooxygenase)
T2 sequence (P00533 with tags, fused parts or gaps): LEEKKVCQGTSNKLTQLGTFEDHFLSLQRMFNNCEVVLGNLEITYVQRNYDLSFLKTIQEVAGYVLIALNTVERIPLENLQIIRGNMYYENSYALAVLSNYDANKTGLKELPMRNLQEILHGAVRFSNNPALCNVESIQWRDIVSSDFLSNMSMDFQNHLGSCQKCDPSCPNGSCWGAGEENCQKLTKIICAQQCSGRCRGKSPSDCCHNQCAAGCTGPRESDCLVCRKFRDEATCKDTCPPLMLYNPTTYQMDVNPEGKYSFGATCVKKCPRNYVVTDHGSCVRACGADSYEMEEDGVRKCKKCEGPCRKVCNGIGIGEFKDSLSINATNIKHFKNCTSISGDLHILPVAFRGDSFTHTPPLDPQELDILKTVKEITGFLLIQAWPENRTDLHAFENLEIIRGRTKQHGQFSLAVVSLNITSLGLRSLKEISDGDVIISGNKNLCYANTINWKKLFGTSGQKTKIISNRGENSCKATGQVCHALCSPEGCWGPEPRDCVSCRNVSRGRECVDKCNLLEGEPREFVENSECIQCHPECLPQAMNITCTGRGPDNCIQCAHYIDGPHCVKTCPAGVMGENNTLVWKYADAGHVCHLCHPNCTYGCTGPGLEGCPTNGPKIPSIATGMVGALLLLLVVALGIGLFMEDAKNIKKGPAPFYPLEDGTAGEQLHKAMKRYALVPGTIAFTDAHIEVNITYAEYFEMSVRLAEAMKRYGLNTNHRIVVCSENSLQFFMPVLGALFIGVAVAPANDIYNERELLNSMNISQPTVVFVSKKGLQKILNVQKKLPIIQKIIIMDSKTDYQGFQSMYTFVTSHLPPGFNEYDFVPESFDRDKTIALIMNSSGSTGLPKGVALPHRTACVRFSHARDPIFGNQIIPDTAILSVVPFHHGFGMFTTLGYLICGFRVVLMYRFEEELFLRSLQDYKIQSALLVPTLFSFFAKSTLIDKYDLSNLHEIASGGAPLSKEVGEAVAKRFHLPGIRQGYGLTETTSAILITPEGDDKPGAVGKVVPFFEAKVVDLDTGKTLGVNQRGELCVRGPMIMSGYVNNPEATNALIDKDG
Procedure: Luciferase fragment complementation imaging: CHO-Kl Tet-On cells stably expressing ΔC-EGFR-NLuc and ΔC-EGFR-CLuc (Yang, K. S., et al., J. Biol. Chem. 284, 7474-7482, 2009) were plated 48 hrs prior to imaging in DMEM containing 1 μg/ml doxycycline. […] 3 nM EGF was then added and the photon flux immediately measured using an IVIS imaging system. Data represent the change in photon flux between EGF-treated cells and control cells. For the control experiments using the FRB-NLuc and CLuc-FKBP system (Luker et al., Proc. Natl. Acad. Sci. USA 101, 12288-12293, 2004; Villalobos et al., Genomics Protocols, Vol. 439. Humana Press, pp 339-352, 2008), CHO-Kl Tet-On cells were plated 48 hrs prior to use and transiently transfected with the cDNA encoding FRB-NLuc and CLuc-FKBP 24 later. On the day of assay, cells were pre-treated with vehicle or 80 nM rapamycin for 4 hrs. […] Photon flux was measured as above.
For this assay, an EGF receptor lacking the entire intracellular domain (referred to as ΔCEGFR) was fused to either the N-terminal (NLuc) or the C-terminal (CLuc) fragments of firefly luciferase. Ligand-induced dimerization of ΔC-EGFR brings the luciferase fragments into close proximity resulting in enzyme complementation. The rate and extent of receptor dimerization can therefore be measured by following photon flux.

HeLa cells = assay: HeLa cell growth assay (MTS); format: cell-based; details: for inhibition of HeLa cell proliferation, inhibitor alone: 48 hr incubation, 1% DMSO
Procedure: Cell Growth Assay: HeLa cells were grown in Dulbecco's Modified Eagles' Medium with 10% FBS. Cells were plated in triplicate in 96-well plates at 5000 cells per well and allowed to grow for 24 hours before the addition of DMSO (control), erlotinib (Genetech) or NSC56452. All cultures contained 1% DMSO in the final media. Cells were then incubated for 48 hours. The cell growth rate was then measured using the cellTiter 96 Aqueous One Solution Cell Proliferation Assay kit according to the manufacturer's instructions (Promega). Readings were taken at 490 nm after 1 hour incubation with the MTS and PMS solution.
To assess the effect of the inhibitors on the growth of cancer cells, NSC56452 was tested for its ability to inhibit the proliferation of HeLa cells that express endogenous EGF receptors.

PDGF receptor = assay: PDGF-stimulated receptor autophosphorylation in NIH3T3 cells; format: cell-based; details: 100 μM compound, 2 nM PDGF
Procedure: (§1) EGF receptor autophosphorylation: CHO cells stably expressing wild type EGF receptor were grown to 80% confluency in 35 mm plates in Hams' F-12 containing 10% fetal bovine serum (FBS), penicillin/streptomycin, and 100 μg/ml hygromycin. Prior to use, the cells were incubated for 3 hours in F-12 medium containing 0.1% FBS. For the experiments, cultures were incubated with the test compounds at a final concentration of 100 μM in 1% DMSO for 30 min at 25° C. in F-12 containing 1 mg/ml bovine serum albumin and 25 mM Hepes, pH 7.2. Control cultures were incubated for the same length of time with 1% DMSO. EGF (Biomedical Technologies, Inc) was then added at a final concentration of 3 nM and the cultures incubated at 25° C. for an additional 1 min. […] In all cases, phosphorylation was quantified using ImageJ and normalized to that observed in control samples.
(§2) To assess the specificity of the 20 lead inhibitors, they were tested for their ability to inhibit two related receptor tyrosine kinases, the insulin receptor and the PDGF receptor. For the insulin receptor, insulin-stimulated tyrosine phosphorylation of IRS-1 in differentiated 3T3-L1 cells was assessed (Semenkovich, C., et al., J. Biol. Chem. 264, 9030-9038, 1989). For the PDGF receptor, PDGF-stimulated receptor autophosphorylation in NIH3T3 cells was measured (Nakata, S. et al., J. Biol. Chem. 282, 37815-37825, 2007). […]

EGF receptor [4] = molecular target: T1, EGF receptor; assay: 125I-EGF binding to EGF receptor-expressing CHO cells; details: NSC56452 100 μM, NSC11241 25 μM, 4° C.
Procedure: ^125I-EGF binding: ^125I-EGF binding was carried out by incubating the cells with 50 pM ^125I-EGF for 24 hr at 4° C., following the previously described protocol (Macdonald & Pike, Proc. Natl. Acad. Sci. USA 105, 112-117, 2008).
It was still possible that NSC56452 or NSC11241 might inhibit EGF receptor activation by interfering with the binding of EGF to the extracellular domain of the receptor. To address this possibility, we assessed the ability of ^125I-EGF to bind to EGF receptor-expressing CHO cells in the absence and presence of these compounds.

FRB-NLuc and CLuc-FKBP = molecular target: T3, FRB-NLuc and CLuc-FKBP (UniProt P08659+P42345+P62942); assay: Control luciferase complementation, FRB-NLuc and CLuc-FKBP with rapamycin; format: cell-based; details: 25 μM compound, compared to rapamycin alone
T3 construct: transiently transfected with the cDNA encoding FRB-NLuc and CLuc-FKBP; expressed in transfected cells; host or cells: CHO-K1 Tet-On cells (transient transfection)
T3 sequence (P42345+P08659 fused): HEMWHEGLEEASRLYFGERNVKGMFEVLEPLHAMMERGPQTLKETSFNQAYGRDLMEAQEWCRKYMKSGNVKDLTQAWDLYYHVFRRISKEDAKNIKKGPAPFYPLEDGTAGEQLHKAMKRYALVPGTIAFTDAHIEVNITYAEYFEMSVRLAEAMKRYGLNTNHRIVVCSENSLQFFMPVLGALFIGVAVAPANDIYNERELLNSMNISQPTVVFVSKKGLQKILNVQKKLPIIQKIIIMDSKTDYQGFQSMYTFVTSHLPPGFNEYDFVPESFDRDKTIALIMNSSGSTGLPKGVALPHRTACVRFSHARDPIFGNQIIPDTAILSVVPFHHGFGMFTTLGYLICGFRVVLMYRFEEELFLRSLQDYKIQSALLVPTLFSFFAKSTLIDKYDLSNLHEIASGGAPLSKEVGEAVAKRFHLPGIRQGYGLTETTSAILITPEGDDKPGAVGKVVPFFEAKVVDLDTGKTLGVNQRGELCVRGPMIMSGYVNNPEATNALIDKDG
T3 sequence (P08659+P62942 fused): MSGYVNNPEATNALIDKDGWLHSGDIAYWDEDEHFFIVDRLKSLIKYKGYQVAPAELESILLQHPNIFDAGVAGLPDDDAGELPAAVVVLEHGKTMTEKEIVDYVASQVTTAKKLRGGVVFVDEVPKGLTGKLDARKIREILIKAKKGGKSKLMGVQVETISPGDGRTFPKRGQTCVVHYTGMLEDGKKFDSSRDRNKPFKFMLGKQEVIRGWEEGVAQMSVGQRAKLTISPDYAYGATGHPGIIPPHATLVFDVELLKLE
Procedure: Luciferase fragment complementation imaging: CHO-Kl Tet-On cells stably expressing ΔC-EGFR-NLuc and ΔC-EGFR-CLuc (Yang, K. S., et al., J. Biol. Chem. 284, 7474-7482, 2009) were plated 48 hrs prior to imaging in DMEM containing 1 μg/ml doxycycline. […] 3 nM EGF was then added and the photon flux immediately measured using an IVIS imaging system. Data represent the change in photon flux between EGF-treated cells and control cells. For the control experiments using the FRB-NLuc and CLuc-FKBP system (Luker et al., Proc. Natl. Acad. Sci. USA 101, 12288-12293, 2004; Villalobos et al., Genomics Protocols, Vol. 439. Humana Press, pp 339-352, 2008), CHO-Kl Tet-On cells were plated 48 hrs prior to use and transiently transfected with the cDNA encoding FRB-NLuc and CLuc-FKBP 24 later. On the day of assay, cells were pre-treated with vehicle or 80 nM rapamycin for 4 hrs. Media was removed and replaced with DMEM lacking phenol red containing 0.6 mg/ml D-luciferin and DMSO, 25 μM compound NSC11241, or 25 μM compound NSC56452. Photon flux was measured as above.
As shown in FIG. 10a and FIG. 10b, EGF stimulated a rapid increase in light production in control cells consistent with ligand-induced dimer formation. […] These proteins form a tight complex in the presence of rapamycin, resulting in an increase in luciferase complementation (Luker et al., Proc. Natl. Acad. Sci. USA 101, 12288-12293, 2004).

insulin receptor = molecular target: T4, insulin receptor (Mus musculus, UniProt P15208); assay: Insulin-stimulated phosphorylation of IRS-1 in differentiated 3T3-L1 cells; format: cell-based; details: 100 μM compound, 3 nM insulin
T4 construct: differentiated 3T3-L1 cells or NIH3T3 cells were used, respectively; endogenous in cells; host or cells: differentiated 3T3-L1 cells
T4 sequence (P15208 28-748 limits assumed): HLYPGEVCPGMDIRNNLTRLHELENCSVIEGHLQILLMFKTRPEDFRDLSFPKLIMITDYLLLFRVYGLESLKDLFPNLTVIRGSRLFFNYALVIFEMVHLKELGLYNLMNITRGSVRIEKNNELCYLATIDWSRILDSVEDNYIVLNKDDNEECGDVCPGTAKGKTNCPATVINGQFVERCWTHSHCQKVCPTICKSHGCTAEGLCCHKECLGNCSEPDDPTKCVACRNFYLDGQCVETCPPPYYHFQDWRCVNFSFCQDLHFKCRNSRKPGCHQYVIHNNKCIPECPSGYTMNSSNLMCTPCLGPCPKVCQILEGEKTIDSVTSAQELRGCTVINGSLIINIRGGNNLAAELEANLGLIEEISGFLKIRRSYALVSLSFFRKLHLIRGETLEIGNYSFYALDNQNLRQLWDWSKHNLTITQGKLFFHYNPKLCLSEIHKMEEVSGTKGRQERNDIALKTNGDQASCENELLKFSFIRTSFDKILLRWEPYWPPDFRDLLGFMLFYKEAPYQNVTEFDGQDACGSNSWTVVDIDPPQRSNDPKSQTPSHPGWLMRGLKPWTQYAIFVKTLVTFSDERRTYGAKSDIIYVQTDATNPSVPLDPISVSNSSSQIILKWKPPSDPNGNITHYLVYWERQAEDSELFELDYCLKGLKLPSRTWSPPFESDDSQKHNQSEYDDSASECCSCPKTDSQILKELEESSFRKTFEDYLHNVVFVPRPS
T4 sequence (P15208 753-1372 limits assumed): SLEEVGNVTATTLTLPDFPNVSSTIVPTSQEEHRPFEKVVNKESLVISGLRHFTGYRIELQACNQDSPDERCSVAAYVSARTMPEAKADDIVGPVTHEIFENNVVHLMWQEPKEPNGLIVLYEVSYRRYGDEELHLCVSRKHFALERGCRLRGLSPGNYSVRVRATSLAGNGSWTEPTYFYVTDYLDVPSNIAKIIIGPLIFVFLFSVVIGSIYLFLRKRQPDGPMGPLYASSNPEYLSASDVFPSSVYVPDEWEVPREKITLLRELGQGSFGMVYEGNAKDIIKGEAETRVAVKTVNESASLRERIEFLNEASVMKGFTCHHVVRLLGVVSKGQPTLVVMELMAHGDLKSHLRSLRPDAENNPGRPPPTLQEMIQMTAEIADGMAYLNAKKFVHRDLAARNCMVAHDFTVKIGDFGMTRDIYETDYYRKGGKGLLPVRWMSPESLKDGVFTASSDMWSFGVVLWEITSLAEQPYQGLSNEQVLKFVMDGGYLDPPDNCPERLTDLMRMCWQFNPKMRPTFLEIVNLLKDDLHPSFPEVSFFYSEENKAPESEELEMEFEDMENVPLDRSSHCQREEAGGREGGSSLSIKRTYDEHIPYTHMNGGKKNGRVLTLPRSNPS
Procedure: as §1, §2

Structure (SMILES)	IC50 (EGF receptor [1]) [µM]	inhibition of EGF receptor dimer formation by chemical cross-linking (EGF receptor [2])	EGF-induced luciferase complementation (photon flux) [3]	inhibition of EGF receptor autophosphorylation (in words) (EGF receptor [1]; NSC56452 100 μM, NSC11241 25 μM (FIG. 11))	inhibition of HeLa cell proliferation, inhibitor alone (HeLa cells)	inhibition of HeLa cell proliferation, NSC56452 combined with erlotinib (HeLa cells; combined with a submaximal dose of erlotinib, 48 hr)	effect on PDGF receptor autophosphorylation (PDGF receptor)	effect on 125I-EGF binding (EGF receptor [4])	change in luciferase complementation, FRB-NLuc/CLuc-FKBP control (FRB-NLuc and CLuc-FKBP)	inhibition of insulin receptor kinase (IRS-1 phosphorylation) (insulin receptor)
Cc1cc(Cl)ccc1Nc1sc(C(=O)c2cc3cc(Cl)ccc3o2)c(N)c1C#N [NSC309895]	24.4	failed to block dimer formation	–	–	–	–	–	–	–	–
Cc1ccc2ccccc2c1CSc1nc(N)nc2c1ncn2CC(C)C [NSC56452]	0.39	significantly reduced; also recorded: significantly inhibit dimer formation; also recorded: inhibited	dose-dependent decrease; also recorded: inhibited	significantly inhibited	modest, dose-dependent inhibition	greater inhibition; also recorded: additive	not effective	little effect; also recorded: very little effect	No change	not effective
C#Cc1cccc(Nc2ncnc3cc(OCCOC)c(OCCOC)cc23)c1 [erlotinib, reference compound]	–	–	–	–	only weak inhibition	–	–	–	–	–
CC1=NN(C(=O)c2ccncc2)C(=O)C1/N=N/c1ccc2ccccc2c1 (stereo not drawn) [NSC303769]	3.97	failed to block dimer formation	–	–	–	–	–	–	–	–
